In ChEMBL document CHEMBL5331124, “Degradation of Hexokinase 2 Blocks Glycolysis and Induces GSDME-Dependent Pyroptosis to Amplify Immunogenic Cell Death for Breast Cancer Therapy” (J Med Chem, 2023):
Active and inactive are the calls of the source. No cut-off for these calls is given here.

How the values were obtained:
4T1 [1] = assay: Inhibition of glycolysis in mouse 4T1 cells assessed as reduction in oxygen consumption rate at 20 uM incubated for 1 to 4 hrs by seahorse analyzer method; type: functional, cell-based; conditions: time 1-4 hrs
[2] = Toxicity in BALB/c mouse implanted wth mouse 4T1 cells assessed as effect on body weight at 50 mg/kg, ip measured after 23 days; type: organism-based; conditions: in vivo, 552 h, time 23 day
4T1 [3] = assay: Antiproliferative activity against mouse 4T1 cells expressing SiHK2 assessed as cell growth inhibition measured for 72 hrs by MTT assay; type: functional, cell-based
[4] = Toxicity in BALB/c mouse implanted with mouse 4T1 cells assessed as change in corpuscular hemoglobin concentration at 50 mg/kg, ip measured after 25 days by routine blood test; type: organism-based; conditions: in vivo, 600 h, time 25 day
4T1 [5] = assay: Antitumor immunity against mouse 4T1 cells implanted in BALB/c mouse model assessed as decrease in PD-L1 protein expression in tumor; type: functional, cell-based
4T1 [6] = assay: Antitumor immunity against mouse 4T1 cells implanted in BALB/c mouse model assessed as increase in ATP release in cell supernatant at 20 uM measured for 36 hrs by ELISA analysis; type: functional, cell-based
4T1 [7] = assay: Induction of pyroptosis in mouse 4T1 cells assessed as viable cells at 20 uM incubated for 36 hrs by annexin V-FITC staining based flow cytometry analysis (reference value: 64 %); type: functional; conditions: read-out: Activity
[8] = Toxicity in BALB/c mouse implanted with mouse 4T1 cells assessed as pathological changes in kidney at 50 mg/kg, ip measured after 25 days in presence of cisplatin by Hematoxylin -eosin staining based analysis; type: organism-based; conditions: in vivo, 600 h, time 25 day
[9] = target: T1, Hexokinase-2 (Homo sapiens) (UniProt P52789); assay: Induction of HK2 degradation in human MDA-MB-231 cells at 20 uM measured for 36 hrs by Western blot analysis; type: cell-based
T1 sequence (whole entry): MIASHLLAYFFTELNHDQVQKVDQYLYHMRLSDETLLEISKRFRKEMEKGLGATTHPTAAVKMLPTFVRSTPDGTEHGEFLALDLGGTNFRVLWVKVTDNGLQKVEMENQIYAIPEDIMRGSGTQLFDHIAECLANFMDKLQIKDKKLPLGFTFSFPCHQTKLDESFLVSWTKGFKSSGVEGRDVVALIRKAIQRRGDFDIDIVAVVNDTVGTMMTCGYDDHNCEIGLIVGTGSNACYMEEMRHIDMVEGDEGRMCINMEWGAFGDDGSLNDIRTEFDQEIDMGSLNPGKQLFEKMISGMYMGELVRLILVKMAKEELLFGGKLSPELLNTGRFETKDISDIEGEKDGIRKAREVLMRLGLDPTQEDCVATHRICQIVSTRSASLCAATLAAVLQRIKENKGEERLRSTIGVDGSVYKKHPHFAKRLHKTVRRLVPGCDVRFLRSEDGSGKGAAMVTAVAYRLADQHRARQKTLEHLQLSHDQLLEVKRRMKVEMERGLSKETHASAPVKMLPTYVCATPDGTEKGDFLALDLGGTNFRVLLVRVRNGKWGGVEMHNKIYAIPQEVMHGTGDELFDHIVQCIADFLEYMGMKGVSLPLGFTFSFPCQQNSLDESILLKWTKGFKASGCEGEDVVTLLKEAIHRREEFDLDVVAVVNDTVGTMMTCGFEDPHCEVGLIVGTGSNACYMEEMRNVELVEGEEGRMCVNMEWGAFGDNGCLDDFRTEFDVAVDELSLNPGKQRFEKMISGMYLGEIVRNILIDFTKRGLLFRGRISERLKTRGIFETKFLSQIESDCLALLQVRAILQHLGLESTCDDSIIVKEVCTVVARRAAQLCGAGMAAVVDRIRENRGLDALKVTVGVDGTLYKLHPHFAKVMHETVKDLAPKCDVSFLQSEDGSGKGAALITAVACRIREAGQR

HGC-27 = assay: Antiproliferative activity against human HGC-27 cells assessed as cell growth inhibition measured for 72 hrs by MTT assay; type: functional, cell-based; conditions: HGC-27, 72 h
4T1 [10] = assay: Antitumor activity against mouse 4T1 cells xenografted in BALB/c mouse assessed as reduction in tumor growth at 50 mg/kg, ip measured after 23 days; type: functional, organism-based; conditions: time 23.0 day
4T1 [11] = assay: Antitumor immunity against mouse 4T1 cells implanted in BALB/c mouse model assessed as accumulation of CRT at 20 uM measured for 36 hrs by ELISA analysis; type: functional, cell-based
MDA-MB-231 [12] = assay: Induction of pyroptosis in human MDA-MB-231 cells assessed as decrease in full length caspase-3 level at 20 uM incubated for 36 hrs by Western blot analysis; type: functional, cell-based
4T1 [13] = assay: Inhibition of colony formation in mouse 4T1 cells at 5 to 20 uM incubated for 48 hrs by giemsa staining based analysis; type: functional, cell-based; conditions: dose 5-20 µM
786-0 = assay: Antiproliferative activity against human 786-0 cells assessed as cell growth inhibition measured for 72 hrs by MTT assay; type: functional, cell-based; conditions: 786-0, 72 h
[14] = Toxicity in BALB/c mouse implanted with mouse 4T1 cells assessed as effect on hemoglobin level at 50 mg/kg, ip measured after 25 days by routine blood test; type: organism-based; conditions: in vivo, 600 h, time 25 day
[15] = Toxicity in BALB/c nude mouse xenografted with human MDA-MB-231 cells assessed as effect on hematocrit level at 50 mg/kg, ip measured after 30 days by routine blood test; type: organism-based; conditions: in vivo, 720 h, time 30 day
4T1 [16] = assay: Antitumor activity against mouse 4T1 cells implanted in BALB/c mouse assessed as reduction in tumor volume at 50 mg/kg, ip measured after 23 days in presence of cisplatin; type: functional, organism-based; conditions: time 23.0 day
4T1 [17] = assay: Antitumor immunity against mouse 4T1 cells implanted in BALB/c mouse model assessed as increase in HMGB1 release in tumor; type: functional, cell-based
4T1 [18] = assay: Induction of pyroptosis in mouse 4T1 cells assessed as increase in full length GSDME level at 20 uM incubated for 36 hrs; type: functional, cell-based
MDA-MB-231 [19] = assay: Antitumor activity against human MDA-MB-231 cells xenografted in BALB/c nude mouse assessed as increase in N-terminal GSDME level at 50 mg/kg, ip measured after 28 days; type: functional, organism-based; conditions: time 28.0 day
[20] = Toxicity in BALB/c mouse implanted with mouse 4T1 cells assessed as colon damage at 50 mg/kg, ip measured after 25 days in presence of cisplatin by H and E staining based analysis; type: organism-based; conditions: in vivo, 600 h, time 25 day
[21] = Toxicity in BALB/c nude mouse xenografted with human MDA-MB-231 cells assessed as body weight loss at 50 mg/kg, ip measured after 30 days; type: organism-based; conditions: in vivo, 720 h, time 30 day
[22] = Toxicity in BALB/c mouse implanted with mouse 4T1 cells assessed as pathological changes in liver at 50 mg/kg, ip measured after 25 days in presence of cisplatin by Hematoxylin -eosin staining based analysis; type: organism-based; conditions: in vivo, 600 h, time 25 day
4T1 [23] = assay: Antitumor activity against mouse 4T1 cells implanted in BALB/c mouse model assessed as nucleus damage at 50 mg/kg, ip measured after 25 days by TUNEL staining based analysis; type: functional, organism-based; conditions: time 25.0 day
[24] = target: Protein cereblon/Hexokinase-2 (Mus musculus) (UniProt O08528+Q8C7D2); assay: PROTAC activity at CRBN/HK2 in mouse 4T1 cells assessed as […] ternary complex formation at 10 uM incubated for 24 hrs; type: cell-based
Chain of Protein cereblon/Hexokinase-2 (Mus musculus) (O08528 whole entry, looked up): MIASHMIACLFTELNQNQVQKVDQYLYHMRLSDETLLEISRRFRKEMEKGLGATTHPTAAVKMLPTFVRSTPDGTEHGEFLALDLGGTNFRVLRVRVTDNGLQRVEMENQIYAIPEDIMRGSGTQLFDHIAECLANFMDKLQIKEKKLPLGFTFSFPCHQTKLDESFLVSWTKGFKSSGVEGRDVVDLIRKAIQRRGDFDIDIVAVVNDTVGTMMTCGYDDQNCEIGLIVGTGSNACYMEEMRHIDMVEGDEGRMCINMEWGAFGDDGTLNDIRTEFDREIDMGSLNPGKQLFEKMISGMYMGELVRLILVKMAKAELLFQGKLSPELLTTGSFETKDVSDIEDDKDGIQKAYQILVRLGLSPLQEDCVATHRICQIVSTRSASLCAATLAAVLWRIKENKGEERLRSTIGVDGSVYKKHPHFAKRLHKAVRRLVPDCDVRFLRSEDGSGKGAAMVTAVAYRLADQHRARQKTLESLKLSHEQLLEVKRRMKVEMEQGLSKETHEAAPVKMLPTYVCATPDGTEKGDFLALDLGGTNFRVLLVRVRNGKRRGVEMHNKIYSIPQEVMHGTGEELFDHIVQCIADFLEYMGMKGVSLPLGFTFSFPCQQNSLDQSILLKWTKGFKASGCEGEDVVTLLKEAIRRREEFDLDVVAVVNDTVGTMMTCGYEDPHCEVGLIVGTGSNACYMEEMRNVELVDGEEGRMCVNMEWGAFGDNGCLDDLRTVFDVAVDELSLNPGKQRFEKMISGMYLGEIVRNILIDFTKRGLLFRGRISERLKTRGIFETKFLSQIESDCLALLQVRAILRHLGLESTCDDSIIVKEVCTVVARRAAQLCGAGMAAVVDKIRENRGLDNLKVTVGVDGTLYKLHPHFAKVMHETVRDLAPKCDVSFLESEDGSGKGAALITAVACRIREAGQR
Chain of Protein cereblon/Hexokinase-2 (Mus musculus) (Q8C7D2 whole entry, looked up): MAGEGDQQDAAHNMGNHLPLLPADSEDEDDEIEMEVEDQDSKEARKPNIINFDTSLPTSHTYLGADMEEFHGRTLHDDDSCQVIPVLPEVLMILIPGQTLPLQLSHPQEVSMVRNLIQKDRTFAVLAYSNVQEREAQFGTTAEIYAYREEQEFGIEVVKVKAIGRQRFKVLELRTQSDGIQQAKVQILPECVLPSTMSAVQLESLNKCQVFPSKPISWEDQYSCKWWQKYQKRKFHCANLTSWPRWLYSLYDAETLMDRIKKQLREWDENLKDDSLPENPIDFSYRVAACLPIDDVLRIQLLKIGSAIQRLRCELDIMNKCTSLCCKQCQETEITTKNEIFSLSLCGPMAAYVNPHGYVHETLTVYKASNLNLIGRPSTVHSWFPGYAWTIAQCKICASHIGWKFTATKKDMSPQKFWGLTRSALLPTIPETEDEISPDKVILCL

O=C1CCC(N2C(=O)c3cccc(NCCCCNC(=O)c4nn(Cc5ccc(Cl)cc5Cl)c5ccccc45)c3C2=O)C(=O)N1 (stereo unspecified)
inhibition (4T1 [1]): Active
Activity [2]: Non-Toxic
Activity (4T1 [3]): inactive
Activity [4]: Non-Toxic
Activity (4T1 [5]): Active
Activity (4T1 [6]): Active
viability at 20 µM (4T1 [7]): 37.7%
Activity [8]: Non-Toxic
Activity [9]: Active
IC50 (HGC-27): 6.11 µM
Activity (4T1 [10]): Active
Activity (4T1 [11]): Active
Activity (MDA-MB-231 [12]): Active
inhibition (4T1 [13]): Active
IC50 (786-0): 34.1 µM
Activity [14]: Non-Toxic
Activity [15]: Non-Toxic
Activity (4T1 [16]): Active
Activity (4T1 [17]): Active
Activity (4T1 [18]): Active
Activity (MDA-MB-231 [19]): Active
Activity [20]: Non-Toxic
Activity [21]: Non-Toxic
Activity [22]: Non-Toxic
Activity (4T1 [23]): Active
Activity [24]: Active
